In ChEMBL document CHEMBL1201862, “PubChem BioAssay data set” (2004):
Where “and” joins values, the source holds several entries; their conditions need not be identical. Identical values can stand only once.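 These data come from cells grown in 96-well plates and exposed to compound for 48 hours at five concentrations. Abbreviation: GI50, concentration required for 50% inhibition of growth.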 Calls of active or inactive are those of the source. No stated cut-off is given here; in the data, active = GI50 up to about 1.1 µM and inactive = higher.

How the values were obtained:
Experiment in all cases: NCI-60 cell line screen, 48 h
[1] = tested on: A498
[2] = tested on: A549
[3] = tested on: COLO 205
[4] = tested on: DLD-1
[5] = tested on: EKVX
[6] = tested on: HCT-15
[7] = tested on: HOP-18
[8] = tested on: HOP-62
[9] = tested on: K562
[10] = tested on: LOX IMVI
[11] = tested on: LXFL 529
[12] = tested on: MOLT-4
[13] = tested on: Malme-3M
[14] = tested on: NCI-H226
[15] = tested on: OVCAR-4
[16] = tested on: OVCAR-8
[17] = tested on: RXF 631
[18] = tested on: SF-268
[19] = tested on: SK-OV-3
[20] = tested on: SN12C
[21] = tested on: SNB-75
[22] = tested on: SNB-78
[23] = tested on: UACC-62
[24] = tested on: XF498
[25] = tested on: 786-0
[26] = tested on: ACHN
[27] = tested on: CAKI-1
[28] = tested on: CCRF-CEM
[29] = tested on: HCT-116
[30] = tested on: HL-60
[31] = tested on: HOP-92
[32] = tested on: HT-29
[33] = tested on: IGROV-1
[34] = tested on: KM-20L2
[35] = tested on: KM12
[36] = tested on: M14
[37] = tested on: M19-MEL
[38] = tested on: NCI-H23
[39] = tested on: NCI-H460
[40] = tested on: NCI-H522
[41] = tested on: OVCAR-3
[42] = tested on: OVCAR-5
[43] = tested on: RPMI-8226
[44] = tested on: RXF 393
[45] = tested on: SF-295
[46] = tested on: SF-539
[47] = tested on: SK-MEL-2
[48] = tested on: SK-MEL-5
[49] = tested on: SNB-19
[50] = tested on: SR
[51] = tested on: SW-620
[52] = tested on: TK-10
[53] = tested on: U-251
[54] = tested on: UACC-257
[55] = tested on: UO-31
[56] = tested on: DMS-114
[57] = tested on: DMS-273
[58] = tested on: HCC 2998
[59] = tested on: SK-MEL-28

C/C=C(/CCC1NCCc2c1[nH]c1ccccc21)[Si](C)(C)C (stereo not drawn)
GI50 [1]: 19.2 µM (inactive) and 11.3 µM (inactive) | GI50 [2]: 14.2 µM (inactive) | GI50 [3]: 1.94 µM (inactive) | GI50 [4]: 8.3 µM (inactive) | GI50 [5]: 7.85 µM (inactive) | GI50 [6]: 6.27 µM | GI50 [7]: 11.9 µM (inactive) | GI50 [8]: 13.5 µM (inactive) | GI50 [9]: 29.2 µM (inactive) and 2.49 µM (inactive) | GI50 [10]: 4.42 µM (inactive) | GI50 [11]: 1.85 µM (inactive) | GI50 [12]: 37.2 µM (inactive) and 2.37 µM (inactive) | GI50 [13]: 33.3 µM (inactive) and 1.78 µM (inactive) | GI50 [14]: 13.8 µM (inactive) | GI50 [15]: 81.7 µM (inactive) and 4.11 µM (inactive) | GI50 [16]: 8.97 µM (inactive) | GI50 [17]: 58.5 µM (inactive) and 6.87 µM (inactive) | GI50 [18]: 10.9 µM (inactive) | GI50 [19]: 13.4 µM (inactive) | GI50 [20]: 5.61 µM (inactive) | GI50 [21]: 95.3 µM (inactive) and 6.17 µM (inactive) | GI50 [22]: 11.6 µM (inactive) | GI50 [23]: 78.9 µM (inactive) and 12.8 µM (inactive) | GI50 [24]: 74.3 µM (inactive) and 1.73 µM (inactive)

C/C(=N/NC(=O)c1ccccc1S(N)(=O)=O)C(CN1CCCCC1)C(C1=C(O)C2C=CC=CC2OC1=O)c1ccccc1 (stereo not drawn)
GI50 [25]: > 100 µM (inactive) | GI50 [1]: > 100 µM (inactive) | GI50 [2]: 91.2 µM (inactive) | GI50 [26]: 61.7 µM (inactive) | GI50 [27]: > 100 µM (inactive) | GI50 [28]: 21.9 µM (inactive) | GI50 [3]: 18.6 µM (inactive) | GI50 [4]: > 100 µM (inactive) | GI50 [5]: > 100 µM (inactive) | GI50 [29]: > 100 µM (inactive) | GI50 [6]: 49.9 µM | GI50 [30]: 23.4 µM (inactive) | GI50 [7]: 87.1 µM (inactive) | GI50 [8]: > 100 µM (inactive) | GI50 [31]: 14 µM (inactive) | GI50 [32]: 83.9 µM (inactive) | GI50 [33]: > 100 µM (inactive) | GI50 [9]: 43.6 µM (inactive) | GI50 [34]: > 100 µM (inactive) | GI50 [35]: 97.3 µM (inactive) | GI50 [10]: 74.5 µM (inactive) | GI50 [11]: 96.6 µM (inactive) | GI50 [36]: 78.3 µM (inactive) | GI50 [37]: 47.6 µM (inactive) | GI50 [13]: 62.7 µM (inactive) | GI50 [14]: 90.2 µM (inactive) | GI50 [38]: > 100 µM (inactive) | GI50 [39]: 77.4 µM (inactive) | GI50 [40]: 52.7 µM (inactive) | GI50 [41]: 41.6 µM (inactive) | GI50 [15]: 67.1 µM (inactive) | GI50 [42]: > 100 µM (inactive) | GI50 [16]: > 100 µM (inactive) | GI50 [43]: 25.5 µM (inactive) | GI50 [44]: 28.4 µM (inactive) | GI50 [17]: > 100 µM (inactive) | GI50 [18]: 58.5 µM (inactive) | GI50 [45]: 57.8 µM (inactive) | GI50 [46]: > 100 µM (inactive) | GI50 [47]: 59.2 µM (inactive) | GI50 [48]: 56.9 µM (inactive) | GI50 [19]: > 100 µM (inactive) | GI50 [20]: 78.7 µM (inactive) | GI50 [49]: 87.7 µM (inactive) | GI50 [21]: > 100 µM (inactive) | GI50 [22]: > 100 µM (inactive) | GI50 [50]: 23.7 µM (inactive) | GI50 [51]: 31.8 µM (inactive) | GI50 [52]: > 100 µM (inactive) | GI50 [53]: 89.1 µM (inactive) | GI50 [54]: 95.7 µM (inactive) | GI50 [23]: 82.6 µM (inactive) | GI50 [55]: 74.5 µM (inactive) | GI50 [24]: > 100 µM (inactive)

COc1ccc(C2ON(c3cccc(C)n3)CC=C2C)cc1 (stereo not drawn)
GI50 [25]: 44.7 µM (inactive) | GI50 [2]: 40.7 µM (inactive) | GI50 [26]: 56 µM (inactive) | GI50 [27]: 74.1 µM (inactive) | GI50 [28]: 42.9 µM (inactive) | GI50 [3]: 41.4 µM (inactive) | GI50 [4]: 35.7 µM (inactive) | GI50 [56]: 40.7 µM (inactive) | GI50 [57]: 26.1 µM (inactive) | GI50 [5]: > 100 µM (inactive) | GI50 [58]: 59.3 µM (inactive) | GI50 [6]: 26.9 µM | GI50 [30]: 18 µM (inactive) | GI50 [7]: > 100 µM (inactive) | GI50 [8]: 65.3 µM (inactive) | GI50 [32]: 32 µM (inactive) | GI50 [33]: 60.8 µM (inactive) | GI50 [9]: 38.8 µM (inactive) | GI50 [34]: 47.1 µM (inactive) | GI50 [35]: 36.3 µM (inactive) | GI50 [10]: 41.5 µM (inactive) | GI50 [11]: 37.2 µM (inactive) | GI50 [36]: 32.6 µM (inactive) | GI50 [37]: 34.6 µM (inactive) | GI50 [12]: 36.4 µM (inactive) | GI50 [13]: 36.6 µM (inactive) | GI50 [14]: > 100 µM (inactive) | GI50 [38]: 27.6 µM (inactive) | GI50 [39]: 67.9 µM (inactive) | GI50 [40]: 19.2 µM (inactive) | GI50 [41]: > 100 µM (inactive) | GI50 [15]: 62.5 µM (inactive) | GI50 [42]: > 100 µM (inactive) | GI50 [16]: > 100 µM (inactive) | GI50 [43]: 30.9 µM (inactive) | GI50 [44]: 29.4 µM (inactive) | GI50 [17]: 48.2 µM (inactive) | GI50 [18]: 60.1 µM (inactive) | GI50 [45]: 59.8 µM (inactive) | GI50 [46]: 60 µM (inactive) | GI50 [59]: 23.7 µM (inactive) | GI50 [47]: 27.4 µM (inactive) | GI50 [48]: 17.6 µM (inactive) | GI50 [19]: 97.9 µM (inactive) | GI50 [20]: 70.6 µM (inactive) | GI50 [49]: 97.1 µM (inactive) | GI50 [21]: 29 µM (inactive) | GI50 [22]: 37.4 µM (inactive) | GI50 [50]: 30.1 µM (inactive) | GI50 [51]: 30.6 µM (inactive) | GI50 [53]: 32.4 µM (inactive) | GI50 [54]: 31 µM (inactive) | GI50 [23]: 40.7 µM (inactive) | GI50 [55]: 45.7 µM (inactive) | GI50 [24]: 38.3 µM (inactive)
